Measured values as given in patent US4971967A, “Quinolinecarboxylic acid derivatives, antibacterial compositions and use” (Kanebo Ltd, priority 1989, dated 1990).
Converted amounts (≈) assume the structure as drawn. Structures can show the parent of a compound that is named as a salt. Where two headings read alike, the source gives them in different places.

Key:
Assay type in all cases: cell-based
[1] = system: Staphylococcus aureus FDA 209P JC-1; experiment: Antibacterial activity (MIC), S. aureus FDA 209P JC-1; settings: FDA209P, read-out: Minimum inhibitory concentration (MIC)
Description: (§1) The compounds of the present invention (A, C, D, E, F, G, H, I, J, L, O and P) and the known compound (X) as reference were dissolved in 0.1 N aqueous sodium hydroxide to prepare a solution of 5000 μg/ml in concentration. The compounds of the present invention (B, K, M and N) and the known compound (Y) were dissolved in sterilized distilled water to prepare a solution of 5000 μg/ml in concentration. Each solution was diluted with sterilized distilled water to prepare a standard solution with a concentration of each test compound: 1000 μg/ml. The test was carried out by a method as appointed by Japan Society of Chemotherapy [cf. Chemotherapy, 29, 76-79 (1981)(TOKYO)].

[2] = system: Staphylococcus aureus IID 803; experiment: Antibacterial activity (MIC), S. aureus IID 803
Description: as §1

[3] = system: Staphylococcus epidermidis IAM-1296; experiment: Antibacterial activity (MIC), S. epidermidis IAM-1296; settings: Staphylococcus epidermidis, IAM1296, Staphylococcus epidermidis IAM-1296, Gram +; read-out: Minimum inhibitory concentration (MIC)
Description: as §1

[4] = system: Streptococcus faecalis IID 682; experiment: Antibacterial activity (MIC), Streptococcus faecalis IID 682; settings: Enterococcus faecalis
Description: as §1

[5] = system: Bacillus subtilis ATCC 6633; experiment: Antibacterial activity (MIC), Bacillus subtilis ATCC 6633; settings: Bacillus subtilis, ATCC6633, Bacillus subtilis ATCC 6633, Gram +; read-out: Minimum inhibitory concentration (MIC)
Description: as §1

[6] = system: Micrococcus luteus ATCC 9341; experiment: Antibacterial activity (MIC), Micrococcus luteus ATCC 9341; settings: ATCC9341; Micrococcus luteus ATCC 9341, Gram +; read-out: Minimum inhibitory concentration (MIC)
Description: as §1

[7] = system: Escherichia coli NIHJ JC-2; experiment: Antibacterial activity (MIC), E. coli NIHJ JC-2; settings: NIHJJC2; Escherichia coli NIHJ JC-2, Gram -; read-out: Minimum inhibitory concentration (MIC)
Description: as §1

Escherichia coli KC-14 = experiment: Antibacterial activity (MIC), E. coli KC-14; settings: KC14; Escherichia coli KC-14, Gram -; read-out: Minimum inhibitory concentration (MIC)
Description: as §1

[8] = system: Klebsiella pneumoniae PCI-602; experiment: Antibacterial activity (MIC), Klebsiella pneumoniae PCI-602; settings: PCI602; Klebsiella pneumoniae PCI-602, Gram -; read-out: Minimum inhibitory concentration (MIC)
Description: as §1

[9] = system: Salmonella typhimurium IID 971; experiment: Antibacterial activity (MIC), Salmonella typhimurium IID 971; settings: Salmonella enterica, read-out: Minimum inhibitory concentration (MIC)
Description: as §1

Shigella sonnei EW-33 = experiment: Antibacterial activity (MIC), Shigella sonnei EW-33; settings: Shigella sonnei, EW33, Shigella sonnei EW-33, Gram -; read-out: Minimum inhibitory concentration (MIC)
Description: as §1

[10] = system: Serratia marcescens IAM 1184; experiment: Antibacterial activity (MIC), Serratia marcescens IAM 1184; settings: Serratia marcescens, IAM1184, Serratia marcescens IAM 1184, Gram -; read-out: Minimum inhibitory concentration (MIC)
Description: as §1

[11] = system: Pseudomonas aeruginosa IFO 3445; experiment: Antibacterial activity (MIC), P. aeruginosa IFO 3445; settings: Pseudomonas aeruginosa, IFO3445, Pseudomonas aeruginosa IFO 3445, Gram -; read-out: Minimum inhibitory concentration (MIC)
Description: as §1

[12] = system: Pseudomonas aeruginosa NCTC 10490; experiment: Antibacterial activity (MIC), P. aeruginosa NCTC 10490; settings: Pseudomonas aeruginosa, NCTC10490, Pseudomonas aeruginosa NCTC 10490, Gram -; read-out: Minimum inhibitory concentration (MIC)
Description: as §1

[13] = system: Pseudomonas aeruginosa E-2; experiment: Antibacterial activity (MIC), P. aeruginosa E-2; settings: E2; Pseudomonas aeruginosa E-2, Gram -; read-out: Minimum inhibitory concentration (MIC)
Description: as §1

[14] = system: Morganella morganii IFO 3848; experiment: Antibacterial activity (MIC), Morganella morganii IFO 3848; settings: Morganella morganii, IFO3848, Morganella morganii IFO 3848, Gram -; read-out: Minimum inhibitory concentration (MIC)
Description: as §1

Proteus vulgaris OX-19 = experiment: Antibacterial activity (MIC), Proteus vulgaris OX-19; settings: OX19; Proteus vulgaris OX-19, Gram -; read-out: Minimum inhibitory concentration (MIC)
Description: as §1

[15] = system: Proteus mirabilis IFO 3849; experiment: Antibacterial activity (MIC), Proteus mirabilis IFO 3849; settings: IFO3849; Proteus mirabilis IFO 3849, Gram -; read-out: Minimum inhibitory concentration (MIC)
Description: as §1

[16] = system: Enterobacter aerogenes ATCC 13048; experiment: Antibacterial activity (MIC), Enterobacter aerogenes ATCC 13048; settings: Klebsiella aerogenes, ATCC13048; Enterobacter aerogenes ATCC 13048, Gram -; read-out: Minimum inhibitory concentration (MIC)
Description: as §1

Enterobacter cloacae 963 = experiment: Antibacterial activity (MIC), Enterobacter cloacae 963; settings: Enterobacter cloacae, 963, Enterobacter cloacae 963, Gram -; read-out: Minimum inhibitory concentration (MIC)
Description: as §1

[17] = system: Citrobacter freundii NIHJ 10018-68; experiment: Antibacterial activity (MIC), Citrobacter freundii NIHJ 10018-68; settings: Citrobacter freundii, NIHJ10018, Citrobacter freundii NIHJ 10018-68, Gram -; read-out: Minimum inhibitory concentration (MIC)
Description: as §1

[18] = system: Acinetobacter calcoaceticus AC 54; experiment: Antibacterial activity (MIC), Acinetobacter calcoaceticus AC 54; settings: AC54; Acinetobacter calcoaceticus AC 54, Gram -; read-out: Minimum inhibitory concentration (MIC)
Description: as §1

[19] = Staphylococcus aureus FDA 209P JC-1, Gram +
[20] = IID803, Staphylococcus aureus IID 803, Gram +, read-out: Minimum inhibitory concentration (MIC)
[21] = IID682, read-out: Minimum inhibitory concentration (MIC)
[22] = Salmonella typhimurium IID 971, Gram -
[23] = IID682, Streptococcus faecalis IID 682, Gram +, read-out: Minimum inhibitory concentration (MIC)

SMILES	MIC [1, 19]	MIC [2, 20]	MIC [3]	MIC [5]	MIC [6]	MIC [7]	MIC (Escherichia coli KC-14)	MIC [8]	MIC (Shigella sonnei EW-33)	MIC [10]	MIC [11]	MIC [12]	MIC [13]	MIC [14]	MIC (Proteus vulgaris OX-19)	MIC [15]	MIC [16]	MIC (Enterobacter cloacae 963)	MIC [17]	MIC [18]	other results
CN1Cc2csc3c(C(=O)O)c(=O)c4cc(F)c(N5CCCC5)c1c4n23 [Compound (F), 9,1-(Methylimino)methano-7-fluoro-8-(1-pyrrolidinyl)-5-oxo-5H-thiazolo[3,2-a]quinoline-4-carboxylic acid]	0.0125 µg/mL (≈ 0.0335 µM)	0.0125 µg/mL (≈ 0.0335 µM)	0.025 µg/mL (≈ 0.067 µM)	6 ng/mL (≈ 0.0161 µM)	0.39 µg/mL (≈ 1.04 µM)	0.2 µg/mL (≈ 0.536 µM)	0.2 µg/mL (≈ 0.536 µM)	6 ng/mL (≈ 0.0161 µM)	0.1 µg/mL (≈ 0.268 µM)	0.78 µg/mL (≈ 2.09 µM)	0.78 µg/mL (≈ 2.09 µM)	0.39 µg/mL (≈ 1.04 µM)	0.39 µg/mL (≈ 1.04 µM)	0.39 µg/mL (≈ 1.04 µM)	0.025 µg/mL (≈ 0.067 µM)	0.39 µg/mL (≈ 1.04 µM)	0.39 µg/mL (≈ 1.04 µM)	0.39 µg/mL (≈ 1.04 µM)	1.56 µg/mL (≈ 4.18 µM)	6 ng/mL (≈ 0.0161 µM)	MIC [4, 21]: 0.1 µg/mL (≈ 0.268 µM); MIC [9, 22]: 0.2 µg/mL (≈ 0.536 µM)
CN1Cc2csc3c(C(=O)O)c(=O)c4cc(F)c(N5CCC(O)C5)c1c4n23 (centres unmarked) [Compound (G), 9,1-(Methylimino)methano-7-fluoro-8-(3-hydroxy-1-pyrrolidinyl)-5-oxo-5H-thiazolo[3,2-a]quinoline-4-carboxylic acid]	0.0125 µg/mL (≈ 0.0321 µM)	0.0125 µg/mL (≈ 0.0321 µM)	0.0125 µg/mL (≈ 0.0321 µM)	6 ng/mL (≈ 0.0154 µM)	0.39 µg/mL (≈ 1 µM)	0.1 µg/mL (≈ 0.257 µM)	0.1 µg/mL (≈ 0.257 µM)	6 ng/mL (≈ 0.0154 µM)	0.05 µg/mL (≈ 0.128 µM)	0.78 µg/mL (≈ 2 µM)	0.78 µg/mL (≈ 2 µM)	0.39 µg/mL (≈ 1 µM)	0.78 µg/mL (≈ 2 µM)	0.2 µg/mL (≈ 0.514 µM)	0.0125 µg/mL (≈ 0.0321 µM)	0.1 µg/mL (≈ 0.257 µM)	0.2 µg/mL (≈ 0.514 µM)	0.2 µg/mL (≈ 0.514 µM)	0.78 µg/mL (≈ 2 µM)	6 ng/mL (≈ 0.0154 µM)	MIC [4, 21]: 0.05 µg/mL (≈ 0.128 µM); MIC [9]: 0.05 µg/mL (≈ 0.128 µM)
CN1Cc2csc3c(C(=O)O)c(=O)c4cc(F)c(N5CCOCC5)c1c4n23 [Compound (I), 9,1-(Methylimino)methano-7-fluoro-8-morpholino-5-oxo-5H-thiazolo[3,2-a]quinoline-4-carboxylic acid]	0.006 µg/mL (≈ 0.0154 µM)	0.006 µg/mL (≈ 0.0154 µM)	0.025 µg/mL (≈ 0.0642 µM)	6 ng/mL (≈ 0.0154 µM)	0.1 µg/mL (≈ 0.257 µM)	0.1 µg/mL (≈ 0.257 µM)	0.1 µg/mL (≈ 0.257 µM)	6 ng/mL (≈ 0.0154 µM)	0.05 µg/mL (≈ 0.128 µM)	0.39 µg/mL (≈ 1 µM)	0.39 µg/mL (≈ 1 µM)	0.2 µg/mL (≈ 0.514 µM)	0.39 µg/mL (≈ 1 µM)	0.1 µg/mL (≈ 0.257 µM)	0.025 µg/mL (≈ 0.0642 µM)	0.1 µg/mL (≈ 0.257 µM)	0.2 µg/mL (≈ 0.514 µM)	0.1 µg/mL (≈ 0.257 µM)	0.78 µg/mL (≈ 2 µM)	6 ng/mL (≈ 0.0154 µM)	MIC [4, 21]: 0.05 µg/mL (≈ 0.128 µM); MIC [9]: 0.05 µg/mL (≈ 0.128 µM)
CN1Cc2csc3c(C(=O)O)c(=O)c4cc(F)c(N5CCN(O)CC5)c1c4n23 [Compound (L), 9,1-(Methylimino)methano-7-fluoro-8-(4-hydroxy-1-piperazinyl)-5-oxo-5H-thiazolo[3,2-a]quinoline-4-carboxylic acid]	–	–	0.1 µg/mL (≈ 0.247 µM)	12.5 ng/mL (≈ 0.0309 µM)	0.78 µg/mL (≈ 1.93 µM)	0.1 µg/mL (≈ 0.247 µM)	0.1 µg/mL (≈ 0.247 µM)	6 ng/mL (≈ 0.0148 µM)	0.05 µg/mL (≈ 0.124 µM)	0.78 µg/mL (≈ 1.93 µM)	0.78 µg/mL (≈ 1.93 µM)	0.39 µg/mL (≈ 0.964 µM)	0.78 µg/mL (≈ 1.93 µM)	0.1 µg/mL (≈ 0.247 µM)	0.0125 µg/mL (≈ 0.0309 µM)	0.2 µg/mL (≈ 0.495 µM)	0.1 µg/mL (≈ 0.247 µM)	0.1 µg/mL (≈ 0.247 µM)	0.39 µg/mL (≈ 0.964 µM)	25 ng/mL (≈ 0.0618 µM)	MIC ([1]; Staphylococcus aureus): 0.05 µg/mL (≈ 0.124 µM); MIC ([2]; Staphylococcus aureus, IID803, read-out: Minimum inhibitory concentration (MIC)): 0.05 µg/mL (≈ 0.124 µM); MIC [4, 23]: 0.1 µg/mL (≈ 0.247 µM); MIC [9, 22]: 0.1 µg/mL (≈ 0.247 µM)
CCNCC1CCN(c2c(F)cc3c(=O)c(C(=O)O)c4scc5n4c3c2N(C)C5)C1 (centres unmarked) [Compound (M), 9,1-(Methylimino)methano-7-fluoro-8-(3-ethylaminomethyl-1-pyrrolidinyl)-5-oxo-5H-thiazolo[3,2-a]quinoline-4-carboxylic acid hydrochloride]	0.025 µg/mL	0.0125 µg/mL	0.05 µg/mL	12.5 ng/mL	0.2 µg/mL	0.1 µg/mL	0.1 µg/mL	6 ng/mL	0.05 µg/mL	0.78 µg/mL	1.56 µg/mL	0.39 µg/mL	1.56 µg/mL	0.2 µg/mL	0.05 µg/mL	0.39 µg/mL	0.1 µg/mL	0.2 µg/mL	0.78 µg/mL	50 ng/mL	MIC [4, 23]: 0.05 µg/mL; MIC [9, 22]: 0.1 µg/mL
